Test results: patent publication US5989521A, “Method for augmenting a decreased level of reduced glutathione in the lung” (The United States of America as represented by the …, priority 1991, dated 1999)
Read-outs that look alike come from different tables or passages of the source.

Key:
[1] = system: cytotoxic T-lymphocyte cell line CTLL-2; conditions: 0.3 units/ml IL-2
Procedure: (§1) T-lymphocyte Proliferation Assays. Cell proliferation in the presence of pre-aerosol compared to post-aerosol concentrations of reduced glutathione was tested on the cytotoxic T-lymphocyte cell lines CT-4R and CTLL-2 (Liang, C-M. et al. (1989) J Biol Chem 264:13519-13523). In 96-well flat bottom plates were placed 50,000 cells of the respective cell lines, suspended in 200 μl Dulbecco's Modified Eagle Medium with 10% fetal calf serum, with either 150 μM or 280 μM reduced glutathione added. The IL-2 dependent cell line CTLL-2 had 0.3 units/ml IL-2 (Genzyme) added in each well. After 18 hr culture in a 10% CO2 incubator at 37° C., 0.5 μCi of ^3 H-thymidine was added for 4 hr, followed by harvesting of cells onto glass fiber filters and scintillation counting for 1 minute. All proliferation assays were done in triplicate.

[2] = system: cytotoxic T-lymphocyte cell line CT-4R
Procedure: as §1

[3] = Procedure: (§2) Ten individuals with IPF (6 male, 4 female, 46±3 yr) defined by standard clinical criteria (Crystal, R. G. et al. (1984) N. Engl. J. Med. 310: 154-166, and 310: 235-244; Turner-Warwick, M. et al. (1980) Thorax. 35: 171-180) received aerosolized GSH; 19 normal nonsmokers (14 male, 5 female, 36±3 yr) (Buhl, R. et al. (1989) Lancet. 2: 1294-1298) served as controls for GSH levels. […] An aerosol of 600 mg GSH was administered every 12 hr for 3 days. Respiratory ELF, obtained by lavage, was evaluated before therapy, and 1 hr after the first or last (sixth) aerosol, and plasma before and 1 hr after the last aerosol. Total glutathione, oxidized glutathione (GSSG) and reduced glutathione (GSH) levels in ELF and plasma were quantified as previously described (Buhl, R. et al. (1990) Proc. Natl. Acad. Sci. USA. 87:4063-4067; Buhl, R. et al. (1989) Lancet. 2: 1294-1298). Spontaneous O2^- release from adherent alveolar macrophages was measured by the reduction of ferricytochrome C (Buhl, R. et al. (1990) Proc. Natl. Acad. Sci. USA. 87:4063-4067). All data are presented as mean ± standard error of the mean. The two-tailed Student's t-test was used to compare ELF glutathione levels in normal and IPF individuals and the results presented as exact p values and degrees of freedom (df). The Wilcoxon paired nonparametric test was used to compare pre- and post-aerosol therapy ELF GSH levels and spontaneous O2^- release by alveolar macrophages, and the results presented as exact p values.
alveolar macrophages = conditions: 600 mg twice daily for 3 days, 1 hr after last dose, all individuals (p=0.02)
Procedure: as §2

Remark: listed apart in the source
[4] = intravenous administration; cited from earlier work
[5] = in vivo
Description: To evaluate possible toxicity of the glutathione aerosol, symptoms, physical examination, routine blood studies, chest x-ray, electrocardiogram, renal function, arterial blood gases, and tests of pulmonary function (forced vital capacity, forced expiratory volume in one second, total lung capacity, diffusing capacity) were followed carefully throughout the study. In addition, visual examination of the respiratory mucosa and analysis of differential cell count in bronchoalveolar lavage fluid were performed before the first aerosol and after administration of the last aerosol.
Study Design. Venous plasma and bronchoalveolar lavage fluid were obtained before GSH administration. An aerosol of 600 mg GSH in 4 ml of saline was then administered over a 25 min period twice a day for three days. Following the last aerosol, venous plasma and bronchoalveolar lavage fluid were again obtained at intervals up to 3 hr after the last aerosol. All measurements were carried out in duplicate.

[6] = preparation reconstituted in 0.9% saline; cited from earlier work
[7] = in vivo; remark: listed apart in the source
Description: Study Population. The study population included 13 male and 1 female HIV-seropositive individuals (average age 32±2 yr)(all data are presented as mean ± standard error of the mean; all statistical comparisons were made using the two-tailed Student's t-test). The diagnosis of HIV infection was confirmed by ELISA and Western blot analysis. All belonged to defined risk groups (13 homosexuals, 1 with heterosexual contact with an infected partner). None were smokers, 9 were untreated, and 5 were receiving azidothymidine, and two were receiving once monthly pentamidine by aerosol.
Biologic Samples. Venous plasma and bronchoalveolar lavage fluid were obtained by standard technique (Saltini, C. et al. (1984) Am Rev Resp Dis 130:650-658). Portions of the lavage fluid were taken for glutathione assays (see below), cell counts (total cell and CD4+ and CD8+ subtypes), and for cytocentrifuge preparations for differential counts. The cells were pelleted and the supernatant was used to quantify the amount of ELF recovered using the urea method (Rennard, S.I. et al. (1986) J Appl Physiol 60:532-538).
Study Design. […]
Glutathione Levels and Form. Glutathione levels in venous plasma, and bronchoalveolar lavage fluid were quantified with minor modifications of standard methods, as previously described (Buhl, R. et al (1989) Lancet 2:1294-1298).

SMILES: N[C@@H](CCC(=O)N[C@@H](CS)C(=O)NCC(=O)O)C(=O)O [GSH, L-γ-glutamyl-L-cysteinyl-glycine]
- proliferation (3H-thymidine incorporation) ([1]; CTLL-2, 150 μM reduced glutathione): 5077±69 cpm
- proliferation (3H-thymidine incorporation) ([1]; CTLL-2, 280 μM reduced glutathione): 5792±219 cpm
- proliferation (3H-thymidine incorporation) ([2]; 150 μM reduced glutathione (pre-therapy concentration)): 7478±550 cpm
- proliferation (3H-thymidine incorporation) ([2]; 280 μM reduced glutathione (post-therapy concentration)): 10,752±376 cpm
- adverse effects associated with GSH aerosol administration ([3]; 600 mg every 12 hr for 3 days): No adverse effects
- ELF oxidized glutathione compared to baseline ([3]; 600 mg twice daily for 3 days, 1 hr after last dose, all individuals (p=0.02)): significant increase
- total glutathione in ELF versus pre-therapy ([3]; 1 hr after the first aerosol of 600 mg GSH (p=0.005)): increased
- plasma glutathione levels following aerosolization ([3]; 1 hr after the last aerosol (p=0.59)): did not change
- average level of total glutathione in ELF versus pre-therapy ([3]; after repeated dosing for 3 days, 1 hr after last aerosol (p=0.55)): higher than the pre-therapy level, but not significantly so
- spontaneous O2- release by alveolar macrophages (alveolar macrophages): decrease
- mass median aerodynamic diameter of the aerosol droplets (150 mg/ml GSH in 0.9% NaCl, nebulizer at 40 psi, laser particle-size analysis): 2.8 μm
- glutathione in the reduced form (in the aerosolized droplets): 97.0±0.6%
- glutathione in the reduced form (pre-aerosol preparations): 98.2±0.1%
- serum half-life [4]: < 2 min
- inflammation of the lower respiratory tract [5]: did not result in inflammation
- physical examination and all clinical studies [5]: remained stable
- pulmonary function tests and arterial blood gases [5]: unchanged
- effect of aerosolization on the form of the GSH [6]: did not alter the form
- oxidized glutathione as percentage of total glutathione in ELF [7]: 44±18%
